Data published in US20250009819A1, “NOVEL PROBIOTICS AND USE THEREOF” (PBLBIOLAB CO., LTD., priority 2021, published 2025).

Columns and labels:
[1] = test system: animals with LPS-induced cognitive impairment; assay: Animals with LPS-induced cognitive impairment: colitis improvement (colon); type: in vivo, C57BL/6 male mice; settings: LPS-treated mice, 1×10^9 CFU/mouse or sulfasalazine 50 mg/kg once a day for 5 days
Experimental: To 100 mg of colon tissue, 200 μl of 10 mM potassium phosphate buffer (pH 7.0) containing 0.5% hexadecyl trimethyl ammonium bromide was added and homogenized. Then, the supernatant was obtained by centrifugation for 10 minutes at 4° C. and 10,000 g. A volume of 50 μl of the supernatant was added to 0.95 mk of reaction solution (containing 1.6 mM tetramethyl benzidine and 0.1 mM H2O2), reacted at 37° C., and absorbance was monitored over time at 650 nm.
(§1) Hippocampus, colon, and spleen tissues were homogenized by adding 1 ml of RIPA buffer (Gibco) containing protease inhibitor cocktail and centrifuged at 4° C., 13000 rpm for 15 min to obtain supernatant. Indicators of this supernatant were measured using an ELISA kit (Ebioscience).
(§2) C57BL/6 male mice (5 weeks old, 19-21 g) were divided (6 mice in each group) and acclimatized to the laboratory for 1 week. To induce intestinal and brain diseases, mice were intraperitoneally administered Escherichia coli-derived LPS (10 μg/kg) once daily for 5 days. […] Experimental animals in the normal group were orally administered with a physiological saline solution, which was used to suspend lactic acid bacteria. The day following the conclusion of sample administration, the experimental animals were sacrificed, and samples from the brain hippocampus, colon, and spleen were collected. In the Hippocampus, inflammatory indicators, such as IFN-γ, TNF-α, and IL-10, were measured using ELISA. In the colon, intestinal length and inflammatory indicators, such as IFN-γ, TNF-α, and IL-10, were measured. In the spleen, Th1 cells and Treg cells were measured by FACS (Fluorescence-Activated Cell Sorting).

[2] = test system: animals with LPS-induced cognitive impairment; assay: Animals with LPS-induced cognitive impairment: cognitive improvement, hippocampus indicators; type: in vivo, C57BL/6 male mice; settings: LPS-treated mice, 1×10^9 CFU/mouse or sulfasalazine 50 mg/kg once a day for 5 days
Experimental: as §1
The Y-shaped maze measurement device is shaped like an alphabetical Y with three arms extending from it, each arm being 25 cm long, 14 cm high, 5 cm wide, and positioned at the same angle. At the end of one arm of the Y-shaped maze, the animal was placed with its head facing out and allowed to freely navigate the arm for 8 minutes. The animal's movements were recorded, and reported as arm entries when the animal entered the arm with its hind paw, and the animal's movement was represented by an alternation, which was defined as one alternation when the animal passed through the three arms in succession. The amount of spontaneous alternation behavior was expressed as a percentage between the actual number of alternations and the maximum possible number of alternations (i.e., the total number of […] minus 2).
The experiment was conducted in a box (40×40×40 cm) made so that the outside could not be seen from the inside. Two objects (A, A′) of the same shape and size were fixedly disposed in a box and the mouse was relocated to start from the center of the box. Then, the number of times the mouse made contact with the two objects was recorded for 10 minutes. After 24 hours, one of the two objects was replaced with a new object (A, B). Then, one original object and one new object were prepared, and the animal's exploration time was measured.
as §2

[3] = test system: animals with LPS-induced cognitive impairment; assay: Animals with LPS-induced cognitive impairment: improvement effect in spleen; type: in vivo, C57BL/6 male mice; settings: LPS-treated mice, 1×10^9 CFU/mouse or sulfasalazine 50 mg/kg once a day for 5 days
Experimental: as §1
mRNA was isolated from spleen tissue using the RNA Isolation Kit: RNeasy Mini Kit (QIAGEN), converted to cDNA, and qPCR was performed to measure the expression rates of Tbet, Foxp3, and glyceraldehyde 3-phosphate dehydrogenase (GAPDH). The reaction product was first treated at 95° C. for 30 seconds, followed by 38 cycles of 5 seconds at 95° C. and 30 seconds at 72° C. for analysis.
as §2

Clostridium difficile = Clostridium difficile proliferation in gut microbiota (PCR); type: cell-based; settings: human feces culture; lactic acid bacteria 1×10^6 CFU/mL; anaerobic 24 hr
Summary of the method: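 Human fecal supernatant, diluted 10,000-fold in GAM, co-cultured anaerobically 24 h with lactic acid bacteria (1×10^6 CFU/mL). C. difficile quantified by PCR on pellet DNA (95 °C 30 s; 42 cycles 95 °C 5 s/72 °C 30 s); supernatant LPS measured by ELISA.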

[4] = Antioxidant activity (DPPH, in vitro); type: biochemical; settings: DPPH 0.2 mM; lactic acid bacteria suspension 1×10^8 CFU/ml; 37° C. 20 min
Summary of the method: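 Lactic acid bacteria suspension (1×10^8 CFU/ml) or vitamin C (1 g/ml) was mixed with 0.2 mM ethanolic DPPH and incubated 20 min at 37° C. After centrifugation, supernatant absorbance at 517 nm gave the antioxidant activity.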

TNF-α = TNF-α expression in LPS-treated macrophages (ELISA); type: cell-based, C57BL/6 mice; settings: macrophages treated with lactic acid bacteria and LPS for 24 hours
Summary of the method: (§3)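 Peritoneal macrophages were elicited in male C57BL/6 mice (6 weeks) by i.p. 4% thioglycolate and harvested 96 h later. Cells at 0.5×10^6/well were treated with lactic acid bacteria plus LPS for 24 h. Cytokines in the supernatant were quantified by ELISA.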

gut microbiota = assay: LPS production in gut microbiota (ELISA); type: cell-based; settings: human feces culture; lactic acid bacteria 1×10^6 CFU/mL; anaerobic 24 hr
Experimental: Fresh human feces were suspended in anaerobic medium (GAM, Nissui Pharmaceutical Co., Ltd., Japan) and allowed to stand for 10 min. The supernatant was diluted with 10,000-fold anaerobic medium, 0.05 mL of the dilution was transplanted into 5 mL of freshly made anaerobic medium, and lactic acid bacteria (1×10^6 CFU/mL) were implanted and incubated anaerobically for 24 hr.

BDNF = BDNF expression in SH-SY5Y cells; type: cell-based; settings: LPS 200 ng/ml; lactic acid bacteria 1×10^4 CFU/ml; 24 h
Experimental: (§4) SH-SY5Y cells obtained from the Korean Cell Line Bank were cultured in DMEM medium supplemented with 10% FBS and 1% antibiotics, and dispensed at 2×10^6 cells per well in a 12-well plate. Then, LPS (200 ng/ml) was added to each well along with lactic acid bacteria (1×10^4 CFU/ml) and incubated for 24 h. The cells and supernatants were collected, sonicated and centrifuged, and the amount of BDNF in the supernatant was measured by ELISA kit.

Neuropeptide Y (NPY) = Neuropeptide Y (NPY) expression in PC12 phaeochromocytoma cells; type: cell-based; settings: LPS 200 ng/ml; lactic acid bacteria 1×10^4 CFU/ml; 24 hr
Experimental: as §4, with “PC12” for “SH-SY5Y”, “1×10^6” for “2×10^6”, “hr.” for “h.”, “NPY” for “BDNF”

IL-10 = IL-10 expression in LPS-treated macrophages (ELISA); type: cell-based, C57BL/6 mice; settings: macrophages treated with lactic acid bacteria and LPS for 24 hours
Summary of the method: as §3

## O=C(O)c1cc(/N=N/c2ccc(S(=O)(=O)Nc3ccccn3)cc2)ccc1O [Sulfasalazine, sulfasalazine, reference compound]
[1]
  Colon (cm): 5.0 cm
  IFN-γ/IL-10: 2.85
  IL-10: 15.91 pg/mg
  Interferon (IFN)-γ: 45.4 pg/mg
  MPO activity: 4.75 μUnit/mg
  TNF-α: 20.1 pg/mg
  TNF-α/IL-10: 1.26
[2]
  Exoporation (%) (in NOR task): 72.02%
  Spontaneous alteration (%) (in Y-maze task): 69.21%
[2]; hippocampus
  IFN-γ/IL-10: 0.60
  IL-10: 45.79 pg/mg
  Interferon (IFN)-γ: 27.35 pg/mg
  TNF-α: 10.98 pg/mg
  TNF-α/IL-10: 0.24
[3]; spleen qPCR
  Tbet/Foxp3: 1.78
[3]; spleen
  IL-10: 9.78 pg/mg
  Interferon (IFN)-γ: 13.55 pg/mg
  NK cell cytoxicity (%): 7.92%
  Phagocytosis (%): 39.59%
  TNF-α: 4.51 pg/mg
  TNF-α/IL-10: 0.13

## Bifidobacterium infantis NK213
Clostridium difficile
  Gut microbiota Inhibition of difficile bacteria proliferation: + (weakly (+; >20-60%))
[4]
  Antioxidant activity: + (weakly (+; >20-60%))
TNF-α
  Macrophage Inhibition of TNF-α expression: + (weakly (+; >20-60%))
Gut microbiota
  Gut microbiota Inhibition of LPS production: − (not or less than 20% (−; <20%))
BDNF
  SHSY5Y cell Induction of BDNF expression: − (not or less than 20% (−; <20%))
Neuropeptide Y (NPY)
  PC12 cell Induction of NPY expression: − (not or less than 20% (−; <20%))
IL-10
  Macrophage Induction of IL-10 expression: + (weakly (+; >20-60%))
